In US7960377B2 (priority 2008, dated 2011):

Target: human CB1 receptor (Homo sapiens, UniProt P21554)
Assay: cell-based
Conditions: for inverse agonist mark, human CB1 receptor: asterisk at the compound number

Sequence of human CB1 receptor (P21554 whole entry): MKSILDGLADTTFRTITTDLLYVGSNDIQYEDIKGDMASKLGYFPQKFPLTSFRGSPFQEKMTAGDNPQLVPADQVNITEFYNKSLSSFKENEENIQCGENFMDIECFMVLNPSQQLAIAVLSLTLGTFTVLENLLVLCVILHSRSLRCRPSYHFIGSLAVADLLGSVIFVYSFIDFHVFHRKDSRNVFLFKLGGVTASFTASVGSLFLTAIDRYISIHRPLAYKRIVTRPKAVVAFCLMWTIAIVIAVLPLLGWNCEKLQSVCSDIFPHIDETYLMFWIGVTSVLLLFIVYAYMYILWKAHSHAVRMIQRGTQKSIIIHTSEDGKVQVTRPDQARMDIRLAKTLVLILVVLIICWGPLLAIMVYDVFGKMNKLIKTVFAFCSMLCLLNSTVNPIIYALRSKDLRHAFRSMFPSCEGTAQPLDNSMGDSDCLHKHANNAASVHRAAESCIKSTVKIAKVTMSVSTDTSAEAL

Compound | inverse agonist mark, human CB1 receptor | EC50 [µM]
CC(C)(C)NC(=O)c1cnc2c(c1)N(S(=O)(=O)c1ccc(Oc3ccccc3)cc1)CCO2 [Example 93, N-tert-butyl-1-(4-phenoxyphenylsulfonyl)-2,3-dihydro-1H-pyrido[2,3-b][1,4]oxazine-7-carboxamide] | 2, 3, 5, 7, 8, 10, 39, 58, 61*, 69, 93*, 101, 102, 109, 110, 111, 112, | 
COc1ccc(S(=O)(=O)N2CCOc3ncc(C(=O)NC(C)(C)CO)cc32)cc1Cl [Example 100, 1-(3-chloro-4-methoxyphenylsulfonyl)-N-(1-hydroxy-2-methylpropan-2-yl)-2,3-dihydro-1H-pyrido[2,3-b][1,4]oxazine-7-carboxamide] |  | > 30
COc1ccc(S(=O)(=O)N2CCOc3ncc(C(=O)NCC(C)(C)O)cc32)cc1F [Example 105] |  | > 30
CC(C)(O)CNC(=O)c1cnc2c(c1)N(S(=O)(=O)c1ccc(F)cc1F)CCO2 [Example 106, 1-(2,4-difluorophenylsulfonyl)-N-(2-hydroxy-2-methylpropyl)-2,3-dihydro-1H-pyrido[2,3-b][1,4]oxazine-7-carboxamide] |  | > 30
COc1ccc(S(=O)(=O)N2CCOc3ncc(C(=O)NCC(C)(C)O)cc32)c(F)c1 [Example 107] |  | > 30
CC(C)(O)CNC(=O)c1cnc2c(c1)N(S(=O)(=O)c1ccc(F)c(Cl)c1)CCO2 [Example 108, 1-(3-chloro-4-fluorophenylsulfonyl)-N-(2-hydroxy-2-methylpropyl)-2,3-dihydro-1H-pyrido[2,3-b][1,4]oxazine-7-carboxamide] |  | > 30
O=C(NCCO)c1cnc2c(c1)N(S(=O)(=O)c1ccc(Cl)c(Cl)c1)CCO2 [Example 114, 1-(3,4-dichlorophenyl-sulfonyl)-N-(2-hydroxyethyl)-2,3-dihydro-1H-pyrido[2,3-b][1,4]oxazine-7-carboxamide] |  | > 30
CN(CCO)C(=O)c1cnc2c(c1)N(S(=O)(=O)c1ccc(Cl)c(Cl)c1)CCO2 [Example 120, 1-(3,4-dichlorophenyl-sulfonyl)-N-(2-hydroxy-ethyl)-N-methyl-2,3-dihydro-1H-pyrido[2,3-b][1,4]oxazine-7-carboxamide] |  | > 30
O=C(c1cnc2c(c1)N(S(=O)(=O)c1ccc(Cl)c(Cl)c1)CCO2)N1CCC[C@@H]1CO [Example 122, (R)-(1-(3,4-dichlorophenyl-sulfonyl)-2,3-dihydro-1H-pyrido[2,3-b][1,4]oxazin-7-yl)(2-(hydroxymethyl)pyrrolidin-1-yl)methanone] |  | > 30
CN1CCN(C(=O)c2cnc3c(c2)N(S(=O)(=O)c2ccc(Cl)c(Cl)c2)CCO3)CC1 [Example 123, (1-(3,4-dichlorophenyl-sulfonyl)-2,3-dihydro-1H-pyrido [2,3-b][1,4]oxazin-7-yl)(4-methylpiperazin-1-yl)methanone] |  | > 30
O=C(c1cnc2c(c1)N(S(=O)(=O)c1ccc(Cl)c(Cl)c1)CCO2)N1CCC(F)(F)C1 [Example 126, (1-(3,4-dichlorophenyl-sulfonyl)-2,3-dihydro-1H-pyrido[2,3-b][1,4]oxazin-7-yl)(3,3-difluoro-pyrrolidin-1-yl)methanone] |  | > 30
O=C(c1cnc2c(c1)N(S(=O)(=O)c1ccc(Cl)c(Cl)c1)CCO2)N1CCC(O)CC1 [Example 127, (1-(3,4-dichlorophenyl-sulfonyl)-2,3-dihydro-1H-pyrido[2,3-b][1,4]oxazin-7-yl)(4-hydroxypiperidin-1-yl)methanone] |  | > 30
O=C(c1cnc2c(c1)N(S(=O)(=O)c1ccc(Cl)c(Cl)c1)CCO2)N1CC(F)(F)C1 [Example 128, (1-(3,4-dichlorophenyl-sulfonyl)-2,3-dihydro-1H-pyrido[2,3-b][1,4]oxazin-7-yl)(3,3-difluoroazetidin-1-yl)methanone] |  | > 30
COC1CN(C(=O)c2cnc3c(c2)N(S(=O)(=O)c2ccc(Cl)c(Cl)c2)CCO3)C1 [Example 129, (1-(3,4-dichlorophenyl-sulfonyl)-2,3-dihydro-1H-pyrido[2,3-b][1,4]oxazin-7-yl)(3-methoxyazetidin-1-yl)methanone] |  | > 30
O=C(c1cnc2c(c1)N(S(=O)(=O)c1ccc(Cl)c(Cl)c1)CCO2)N1CCC1 [Example 130, azetidin-1-yl(1-(3,4-dichlorophenylsulfonyl)-2,3-dihydro-1H-pyrido[2,3-b][1,4]oxazin-7-yl)methanone] | 130*, 136, 141, 142, 149, 156, 157, 163, 164, 168, 173, 183, 195, | 
CCC(C)(C)NC(=O)c1cnc2c(c1)N(S(=O)(=O)N(C)C)CCO2 [Example 143, 1-(N,N-dimethyl-sulfamoyl)-N-tert-pentyl-2,3-dihydro-1H-pyrido[2,3-b][1,4]oxazine-7-carboxamide] |  | > 30
CN(C)S(=O)(=O)N1CCOc2ncc(C(=O)NC(C)(C)CO)cc21 [Example 144, 1-(N,N-dimethyl-sulfamoyl)-N-(1-hydroxy-2-methylpropan-2-yl)-2,3-dihydro-1H-pyrido[2,3-b][1,4]oxazine-7-carboxamide] |  | > 30

Compound | inverse agonist mark, human CB1 receptor | EC50 [µM]
CN(C)S(=O)(=O)N1CCOc2ncc(C(=O)NC(C)(C)C)cc21 [Example 145, N-tert-butyl-1-(N,N-dimethylsulfamoyl)-2,3-dihydro-1H-pyrido[2,3-b][1,4]oxazine-7-carboxamide] |  | > 30
CC(C)(CN1CCOCC1)NC(=O)c1cnc2c(c1)N(S(=O)(=O)N1CCCCC1)CCO2 [Example 147, N-(2-methyl-1-morpholinopropan-2-yl)-1-(piperidin-1-ylsulfonyl)-2,3-dihydro-1H-pyrido[2,3-b][1,4]oxazine-7-carboxamide] |  | > 30
CCC(C)(C)NC(=O)c1cnc2c(c1)N(S(=O)(=O)N1CCN(C)CC1)CCO2 [Example 175, 1-(4-methylpiperazin-1-ylsulfonyl)-N-tert-pentyl-2,3-dihydro-1H-pyrido[2,3-b][1,4]oxazine-7-carboxamide] |  | > 30
CC(C)(C)NC(=O)c1cnc2c(c1)N(S(=O)(=O)N1CCC(N3CCCC3)CC1)CCO2 [Example 176, N-tert-butyl-1-(4-(pyrrolidin-1-yl)piperidin-1-ylsulfonyl)-2,3-dihydro-1H-pyrido[2,3-b][1,4]oxazine-7-carboxamide] |  | > 30
CC(C)(CO)NC(=O)c1cnc2c(c1)N(S(=O)(=O)NCc1ccccc1)CCO2 [Example 179, 1-(N-benzylsulfamoyl)-N-(1-hydroxy-2-methylpropan-2-yl)-2,3-dihydro-1H-pyrido[2,3-b][1,4]oxazine-7-carboxamide] |  | > 30
CC(C)CNS(=O)(=O)N1CCOc2ncc(C(=O)NC(C)(C)CO)cc21 [Example 181, N-(1-hydroxy-2-methylpropan-2-yl)-1-(N-isobutylsulfamoyl)-2,3-dihydro-1H-pyrido[2,3-b][1,4]oxazine-7-carboxamide] |  | > 30
CC1CN(C(=O)c2cnc3c(c2)N(S(=O)(=O)c2ccc(C(F)(F)F)cc2)CCO3)CC(C)O1 (stereo not drawn) [Example 198, (2,6-dimethylmorpholino)(1-(4-(trifluoromethyl)phenylsulf-onyl)-2,3-dihydro-1H-pyrido[2,3-b][1,4]oxazin-7-yl)methanone] |  | > 30
CC1CC(C)CN(C(=O)c2cnc3c(c2)N(S(=O)(=O)c2ccc(C(F)(F)F)cc2)CCO3)C1 (stereo not drawn) [Example 200, (3,5-dimethylpiperidin-1-yl)(1-(4-(trifluoromethyl)phenylsulf-onyl)-2,3-dihydro-1H-pyrido[2,3-b][1,4]oxazin-7-yl)methanone] |  | > 30
O=C(OCC1CCCCN1)c1cnc2c(c1)N(S(=O)(=O)c1ccc(C(F)(F)F)cc1)CCO2 (stereo not drawn) [Example 202, piperidin-2-ylmethyl 1-(4-(trifluoromethyl)phenylsulfonyl)-2,3-dihydro-1H-pyrido[2,3-b][1,4]oxazine-7-carboxylate] |  | > 30
CNCCOC(=O)c1cnc2c(c1)N(S(=O)(=O)c1ccc(Cl)c(Cl)c1)CCO2 [Example 203, 2-(methylamino)ethyl 1-(3,4-dichlorophenylsulfonyl)-2,3-dihydro-1H-pyrido[2,3-b][1,4]oxazine-7-carboxylate] |  | > 30
CNCC(C)(C)COC(=O)c1cnc2c(c1)N(S(=O)(=O)c1ccc(Cl)c(Cl)c1)CCO2 [Example 204, 2,2-dimethyl-3-(methylamino)propyl 1-(3,4-dichlorophenylsulfonyl)-2,3-dihydro-1H-pyrido[2,3-b][1,4]oxazine-7-carboxylate] |  | > 30
O=C(c1noc(-c2cnc3c(c2)N(S(=O)(=O)c2ccc(F)cc2)CCO3)n1)N1CCOCC1 [Example 215, (5-(1-(4-fluorophenyl-sulfonyl)-2,3-dihydro-1H-pyrido[2,3-b][1,4]oxazin-7-yl)-1,2,4-oxadiazol-3-yl)(morpholino)methanone] |  | > 30
O=C(NC1CCCC1)c1cnc2c(c1)N(Cc1ccccc1)C(=O)CO2 [Example 219, 1-benzyl-N-cyclopentyl-2-oxo-2,3-dihydro-1H-pyrido[2,3-b] [1,4]oxazine-7-carboxamide] |  | > 30
CC(C)(C)NC(=O)c1cnc2c(c1)N(Cc1ccccc1)C(=O)CO2 [Example 220, 1-benzyl-N-tert-butyl-2-oxo-2,3-dihydro-1H-pyrido[2,3-b] [1,4]oxazine-7-carboxamide] |  | > 30
O=C(NC1CCCC1)c1cnc2c(c1)N(Cc1ccc(F)cc1)C(=O)CO2 [Example 221, N-cyclopentyl-1-(4-fluorobenzyl)-2-oxo-2,3-dihydro-1H-pyrido[2,3-b] [1,4]oxazine-7-carboxamide] |  | > 30
O=C(NC1CCCC1)c1cnc2c(c1)N(Cc1ccc(Cl)cc1)C(=O)CO2 [Example 222, 1-(4-chlorobenzyl)-N-cyclopentyl-2-oxo-2,3-dihydro-1H-pyrido[2,3-b][1,4]oxazine-7-carboxamide] |  | > 30
